Molecules are shown by their SMILES.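 In this assay, cells in 96-well plates receive the compound at five concentrations for 48 hours. Endpoints are linearly interpolated between the surrounding concentrations. Abbreviation: GI50, concentration required for 50% inhibition of growth.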 Activity calls are given as the source filed them. No stated cut-off is given here; in the data, active = GI50 up to about 1.1 µM and inactive = higher.

Some test systems named below: MDA-MB-435; RPMI-8226; LOX IMVI; HCC 2998; NCI-H460; MDA-MB-231; OVCAR-5; IGROV-1; A549; UO-31; Malme-3M; NCI/ADR-RES; UACC-257; A498; SF-295; HT-29; SK-MEL-2; NCI-H23; HCT-15.
Common to all, as to experiment: growth of human tumour cells (NCI), 48 h

For `COC(=O)/C=C1/OC(c2ccccc2)=CC1=O`, the GI50 with MDA-MB-435 was 18.3 µM (inactive); in the experiment with RPMI-8226 it was 6.25 µM (inactive); in the experiment on LOX IMVI it was 16.2 µM (inactive); with HCC 2998, 18.2 µM (inactive); in the experiment on NCI-H460 it was 19.7 µM (inactive); with MDA-MB-231, 17 µM (inactive). In addition, the GI50 was 18.6 µM (inactive) in the experiment on OVCAR-5; 16 µM (inactive) with IGROV-1; 29 µM (inactive) in the experiment on A549; 17.8 µM (inactive) in the experiment with UO-31; 18.9 µM (inactive) with Malme-3M; 23.2 µM (inactive) in the experiment on NCI/ADR-RES. Also, the GI50 is 24.7 µM (inactive) in the experiment on UACC-257; 13.7 µM (inactive) with A498; 14.2 µM (inactive) in the experiment with SF-295; 18.5 µM (inactive) in the experiment with HT-29; 22.5 µM (inactive) with SK-MEL-2; 17.6 µM (inactive) with NCI-H23. The compound also showed a GI50 with HCT-15 of 15.6 µM.

With `O=C(c1ccccc1)c1c(-c2ccccc2)[nH]n(-c2ccc([N+](=O)[O-])cc2)c(=O)c1=O`, the GI50 with MDA-MB-435 was 75.2 µM (inactive); in the experiment with RPMI-8226 it was 43.9 µM (inactive); with HCC 2998, 64.7 µM (inactive); in the experiment on NCI-H460 it was 37.2 µM (inactive); in the experiment with MDA-MB-231 it was 30.1 µM (inactive); in the experiment on OVCAR-5 it was > 100 µM (inactive). Besides, the GI50 in the experiment on IGROV-1 was > 100 µM (inactive); in the experiment on A549 it was 38.5 µM (inactive); in the experiment with UO-31 it was 32.1 µM (inactive); in the experiment with Malme-3M, > 100 µM (inactive); with NCI/ADR-RES, 49.5 µM (inactive); in the experiment on UACC-257, 41.5 µM (inactive). Moreover, the GI50 is > 100 µM (inactive) in the experiment with A498; 46.8 µM (inactive) in the experiment with SF-295; 36.6 µM (inactive) in the experiment with HT-29; 21.1 µM (inactive) in the experiment on SK-MEL-2; 0.2 µM (active) in the experiment with NCI-H23; 39.5 µM in the experiment with HCT-15.

For `Oc1ccc2ccccc2c1OCc1nnc(CCCCCCCCc2nnc(COc3c(O)ccc4ccccc34)o2)o1`, the GI50 in the experiment on MDA-MB-435 was > 100 µM (inactive); with RPMI-8226 it was > 100 µM (inactive); in the experiment on HCC 2998, > 100 µM (inactive); in the experiment on NCI-H460, > 100 µM (inactive); with MDA-MB-231 it was 34.8 µM (inactive); in the experiment on OVCAR-5, > 100 µM (inactive). Moreover, the GI50 in the experiment on IGROV-1, in the experiment on A549, in the experiment on UO-31, with Malme-3M, with NCI/ADR-RES and in the experiment with UACC-257 was > 100 µM (inactive) each time. Also, the GI50 in the experiment on A498 is > 100 µM (inactive); in the experiment with SF-295, > 100 µM (inactive); in the experiment on HT-29 it was > 100 µM (inactive); in the experiment with SK-MEL-2 it was > 100 µM (inactive); with NCI-H23 it was > 100 µM (inactive); with HCT-15 it was > 100 µM.

As for `CC(C)=CCc1c(O)c(CC=C(C)C)c2oc(-c3ccc(O)cc3O)c(CC=C(C)C)c(=O)c2c1O`, the GI50 in the experiment on MDA-MB-435 was 4.52 µM (inactive); in the experiment on RPMI-8226, 3.43 µM (inactive); with LOX IMVI, 5.26 µM (inactive); in the experiment with HCC 2998, 4.06 µM (inactive); in the experiment with NCI-H460 it was 4.48 µM (inactive); in the experiment with MDA-MB-231 it was 12.6 µM (inactive). The GI50 is 14.8 µM (inactive) in the experiment on OVCAR-5; 10.6 µM (inactive) with IGROV-1; 5.4 µM (inactive) in the experiment on A549; 8.22 µM (inactive) with UO-31; 16.3 µM (inactive) in the experiment on Malme-3M; 12.3 µM (inactive) with NCI/ADR-RES. Further, the GI50 in the experiment with UACC-257 was 12.5 µM (inactive); in the experiment with A498, 13.8 µM (inactive); with SF-295 it was 7.45 µM (inactive); in the experiment with HT-29, 7.96 µM (inactive); in the experiment on SK-MEL-2 it was 3.66 µM (inactive); in the experiment on NCI-H23, 5.56 µM (inactive). For the same compound, in the experiment on HCT-15, the GI50 was 5.47 µM.

Regarding `CC1=NN(C(=O)CC(=O)Nc2cccc(C)c2)C(=O)C1/N=N/c1ccc(S(=O)(=O)CCOS(=O)(=O)O)cc1` (configuration not stated), the GI50 in the experiment on MDA-MB-435 is 0.211 µM (active); in the experiment on RPMI-8226, 1.86 µM (inactive); with LOX IMVI it was 0.345 µM (active); with HCC 2998 it was 2.17 µM (inactive); in the experiment with NCI-H460, 3.24 µM (inactive); in the experiment on MDA-MB-231, 0.275 µM (active). Besides, the GI50 was 36.6 µM (inactive) in the experiment with OVCAR-5; 0.63 µM (active) in the experiment with IGROV-1; 4.48 µM (inactive) in the experiment with A549; 2.93 µM (inactive) with UO-31; 0.839 µM (active) in the experiment with Malme-3M; 0.344 µM (active) with NCI/ADR-RES. The GI50 with UACC-257 was 7.71 µM (inactive); with A498 it was 11.5 µM (inactive); in the experiment on SF-295, 2.82 µM (inactive); in the experiment on HT-29 it was 0.767 µM (active); with SK-MEL-2, 0.313 µM (active); in the experiment with NCI-H23, 0.76 µM (active). In addition, in the experiment on HCT-15, the GI50 is 0.319 µM.

Take `O=C(CCCCCCCCC(=O)N1C(=O)CC(=O)N(c2ccc(Cl)cc2)C1=S)N1C(=O)CC(=O)N(c2ccc(Cl)cc2)C1=S`: the GI50 was 58.1 µM (inactive) with MDA-MB-435; 30.6 µM (inactive) in the experiment on RPMI-8226; 54.8 µM (inactive) with LOX IMVI; 38.9 µM (inactive) with HCC 2998; 29.6 µM (inactive) in the experiment with NCI-H460; 70.8 µM (inactive) in the experiment with MDA-MB-231. Also, the GI50 is > 100 µM (inactive) in the experiment on OVCAR-5; 34.2 µM (inactive) in the experiment on A549; 35.7 µM (inactive) with UO-31; > 100 µM (inactive) in the experiment on Malme-3M; 24.5 µM (inactive) in the experiment with NCI/ADR-RES; > 100 µM (inactive) in the experiment with UACC-257. The GI50 was > 100 µM (inactive) in the experiment on A498; 33 µM (inactive) in the experiment on SF-295; 73.5 µM (inactive) with HT-29; 49.1 µM (inactive) in the experiment on SK-MEL-2; 58.5 µM (inactive) in the experiment with NCI-H23; 35.6 µM in the experiment with HCT-15.

With `C=C1c2nc3ccccc3n2C=C(c2ccc(Cl)cc2)N1c1ccc(OC)cc1`, the GI50 in the experiment with MDA-MB-435 was 8.28 µM (inactive); in the experiment with RPMI-8226, 14.5 µM (inactive); in the experiment on LOX IMVI, 36.9 µM (inactive); in the experiment on HCC 2998, 8.85 µM (inactive); with NCI-H460, 6.47 µM (inactive); in the experiment with MDA-MB-231, 12.7 µM (inactive). The GI50 with OVCAR-5 was 17.4 µM (inactive); in the experiment on IGROV-1, 6.27 µM (inactive); with A549 it was 10.9 µM (inactive); in the experiment on UO-31 it was 6.38 µM (inactive); with Malme-3M it was 2.82 µM (inactive); with NCI/ADR-RES, 3.48 µM (inactive). Also, the GI50 in the experiment on UACC-257 was 5.07 µM (inactive); with A498, 20.6 µM (inactive); with SF-295, 6.19 µM (inactive); with SK-MEL-2, 22.9 µM (inactive); in the experiment on NCI-H23, 9.95 µM (inactive); in the experiment on HCT-15 it was 10.1 µM.

Consider `CSc1c(C#N)c(N)n(-c2ccc(C)cc2)c(=O)c1C#N`, for which the GI50 is > 100 µM (inactive) in the experiment with MDA-MB-435; > 100 µM (inactive) in the experiment on RPMI-8226; 88.9 µM (inactive) in the experiment on LOX IMVI; > 100 µM (inactive) in the experiment on HCC 2998; > 100 µM (inactive) in the experiment on NCI-H460; > 100 µM (inactive) in the experiment with MDA-MB-231. For the same compound, the GI50 is > 100 µM (inactive) in the experiment with OVCAR-5; > 100 µM (inactive) in the experiment with IGROV-1; > 100 µM (inactive) in the experiment with A549; 50.4 µM (inactive) in the experiment on UO-31; > 100 µM (inactive) in the experiment on Malme-3M; > 100 µM (inactive) in the experiment with NCI/ADR-RES. Moreover, the GI50 is > 100 µM (inactive) in the experiment with UACC-257; 50.8 µM (inactive) with A498; > 100 µM (inactive) in the experiment with HT-29; > 100 µM (inactive) in the experiment on SK-MEL-2; > 100 µM (inactive) in the experiment with NCI-H23; > 100 µM in the experiment on HCT-15.
